Laboratory results reported in patent publication US20230157991A1, “PHARMACEUTICAL COMPOSITION FOR TREATING ACUTE AND CHRONIC PAIN, CONTAINING POLMACOXIB AND TRAMADOL” (CrystalGenomics, Inc., priority 2017, published 2023).

Assays:
[1] = system: MIA-induced osteoarthritis rat model (mechanical allodynia); assay: Analgesic efficacy: paw withdrawal threshold (Von Frey, dynamic plantar aesthesiometer) in MIA-induced osteoarthritis rats; type: in vivo, Sprague Dawley rats; conditions: G3 acetaminophen 300 mg/kg+tramadol HCl 30 mg/kg, G4 polmacoxib 0.3 mg/kg, G5 tramadol HCl 30 mg/kg
Method: To evaluate analgesic efficacy, paw withdrawal threshold (PWT, g) was measured using a dynamic planter aesthesiometer (Ugo Basile S.R.L, Italy).
Von Frey filament used in this experiment has a constant pressure during bending, thereby imparting a constant stimulation. At this time, physical allodynia appears as an avoidance response, thereby enabling quantification of the pain index.
1) The pain suppression effect was measured by imparting physical stimulation with Von Frey filament using Dynamic plantar aesthesiometer (UGO BASILE 37450, Italy).
2) Rats were placed individually in each acrylic cage, allowing the rats to stay for 15 minutes to habituate to the new environment.
3) After habituation, the aesthesiometer was set to 0 ˜ 50 g and 0 ˜ 20 s. The measurement of allodynia by stimulation of the stimulator is performed by stimulating the bottom part of the affected foot, increasing the force incrementally (0-50 g), and measuring the hind paw withdraw threshold (force at the moment when the test body avoided the stimulator:gram) in triplicate at 5 min intervals.
4) The paw withdrawal threshold (PWT) was measured in duplicate at a fixed time within 2 weeks (day 10) and within 3 weeks (day 17) after administration of the test substance.

[2] = system: MIA-induced osteoarthritis rat model (tissues of liver and stomach); assay: Histopathology of stomach and liver (H&E); type: in vivo, Sprague Dawley rats; conditions: G5 tramadol HCl 30 mg/kg; for gastric tissue analysis / gastric irritation, summary in words / epithelial detachment of cardiac gland (stomach histopathology): G4 polmacoxib 0.3 mg/kg; for gastric tissue analysis / gastric irritation, summary in words: co-administration groups G6 and G7 (both doses); for epithelial detachment of cardiac gland (stomach histopathology): mild level in G3 and G4, G3 acetaminophen 300+tramadol HCl 30 mg/kg
Text: Tissue sections were stained for histological evaluation.
1) Tissues of liver and stomach among isolated organs were sufficiently immobilized in 10% neutral buffered formalin solution, followed by general tissue treatment procedures such as trimming, dehydration and paraffin embedding to prepare tissue sections and cut them to about 4 μm. Thereafter, they were stained with Hematoxylin & Eosin (H&E) and examined microscopically.

[3] = system: MMP-3; conditions: MIA osteoarthritis SD rats, oral once daily 3 weeks
[4] = system: MIA-induced osteoarthritis rat model (stomach, liver); assay: Gross necropsy observation after completion of the experiment; conditions: n=10 per group, G5 tramadol HCl 30 mg/kg, oral once daily 3 weeks
[5] = Body weight change and clinical observation in MIA-induced osteoarthritis rat model; conditions: MIA osteoarthritis SD rats, oral once daily 3 weeks; G3 acetaminophen 300 mg/kg+tramadol HCl 30 mg/kg, G4 polmacoxib 0.3 mg/kg, G5 tramadol HCl 30 mg/kg
Method: In order to evaluate therapeutic effect of osteoarthritis, an animal model of osteoarthritis was prepared in Sprague Dawley rats (n=10 per group).
1) Monosodium iodoacetate (MIA, I2512, Sigma, Poole, UK) was dissolved in 0.9% sterile saline for injection at a concentration of 60 mg/ml and prepared on the day of the experiment (day 0).
2) After group separation, animals (Sprague Dawley rats) were placed in an anesthesia chamber (Matrix, US/VME-2) and anesthetized using diethyl ether. Thereafter, subjects in the induced group (G2 to G9) were injected once with 50 μl of MIA per subject (MIA 3 mg/head) into a left knee joint space via a patellar tendon using an insulin syringe (BD™ insulin syringe with Ultra-Fine™ Short Needle, 31 gauge). The number of animals in each group was 10, and the negative control group (G1) was injected once with 50 μl of saline at the same position in the left knee joint.
Group separation was performed only on animals judged to have no quarantine abnormalities during acclimation period, followed by MIA administration. On the 6th day after MIA administration, the weight bearing of hind leg for a total of 100 subjects administered with MIA was measured and the affected subjects with high weight bearing of left hind leg were sequentially excluded to select 70 subjects. […]

[6] = system: MIA-induced osteoarthritis rat model (knee joint); assay: Histological evaluation of knee joint (H&E, safranin O-fast green, modified Mankin score); type: in vivo, Sprague Dawley rats; conditions: compared to positive control group G3; G5 tramadol HCl 30 mg/kg, co-administration groups G6 and G7 (both doses)
Method: 2) The collected knee joint tissues were immobilized in 10% formalin for 24 hours, and decalcificated for 72 hours while exchanging the solution with 10% formic acid at a 24-hour time interval prior to tissue treatment. The sagittal section of the knee joint was prepared through a coronal section so that the medial and lateral condyle articular surface of femur and tibia were well identified.
3) Subsequently, after a general tissue treatment procedure such as dehydration, clearing and penetration, paraffin embedding was performed and a 5 μm thin slice of knee joint was prepared with a rotary microtome. It was subject to deparaffinization and hydration, followed by Hematoxylin & Eosin (H&E) staining.
4) For safranin-O fast green (SOFG) staining, after deparaffinization and hydration, the thin slice of knee joint was reacted in Weigert's iron hematoxylin solution (HT110232, Sigma, St Louis, USA) for 10 minutes and washed with water, and then stained in 0.02% fast green (FCF) solution (F7258, Sigma, St Louis, USA) for 5 minutes. Subsequently, it was reacted in 1% acetic acid solution and then stained with 0.1% safranin O solution (S2255, Sigma, St Louis). The slide stained with safranin O-fast green was washed for 5 minutes to have clear color of nucleus. After dehydration and clarification, it was sealed. […]

[7] = 10-day evaluation, induced group G2 14.7 g
[8] = second evaluation (time not given; day 17 per method)

SMILES	paw withdrawal threshold (PWT) [1, 7]	paw withdrawal threshold (PWT) [1, 8]	gastric tissue analysis / gastric irritation, summary in words [2]	epithelial detachment of cardiac gland (stomach histopathology) ([2]; n=10 per group)	level of MMP-3 in serum obtained after 3 weeks of treatment, in words [3]	gastric wall thickening at gross necropsy ([4]; G3 acetaminophen 300 mg/kg+tramadol HCl 30 mg/kg)	gastric mucosal petechial hemorrhage at gross necropsy ([4]; G3 acetaminophen 300+tramadol HCl 30 mg/kg, G7 polmacoxib 0.3+tramadol HCl 30 mg/kg)	nodules on the surface of liver at gross necropsy [4]	weight gain at end of test compared to average weight at beginning [5]	cluster formation of chondrocytes, in words [6]	erosion of cardiac gland and fundic gland (stomach histopathology) ([2]; n=10 per group, oral once daily 3 weeks)
CC1(C)OC(c2ccc(S(N)(=O)=O)cc2)=C(c2cccc(F)c2)C1=O [polmacoxib, 5-(4-(aminosulfonyl)-phenyl)-2,2-dimethyl-4-(3-fluorophenyl)-3(2H)-furanone]	24.2 g	24.2 g	epithelial detachment of pyloric	4 cases	lower MMP-3 levels compared to the groups G3 and G5						
COc1cccc(C2(O)CCCCC2CN(C)C)c1.Cl (stereo not drawn) [tramadol hydrochloride, 2-(dimethylaminomethyl)-1-(3-methoxyphenyl)]	26.3 g	26.3 g	epithelial detachments of cardia and pyloric and erosion	2 cases		3 cases	3 cases	1 case	18.5%	improvement effects compared to the positive control group G3	4 cases
